Measured values from US20230391768A2, “IMIDAZOPYRIDINE DERIVATIVES AND AZA-IMIDAZOPYRIDINE DERIVATIVES AS JANUS KINASE 2 INHIBITORS AND USES THEREOF” (Dana-Farber Cancer Institute, Inc., priority 2018, published 2023).

Experiments:
Assay in all cases: KINOMEscan
Type in all cases: binding
Settings in all cases: read-out: percent of control
DMPK2 = DMPK2 (Homo sapiens (Human), UniProt Q6DT37)
Protocol: (§1) In vitro profiling of Compound I-2 (1 μM) was performed using the DiscoveRx KINOMEscan® platform.

GRK3 = GRK3 (Homo sapiens (Human), UniProt P35626)
Protocol: as §1

PRKCQ = PRKCQ (Homo sapiens (Human), UniProt Q04759)
Protocol: as §1

TAOK3 = TAOK3 (Homo sapiens (Human), UniProt Q9H2K8)
Protocol: as §1

[1] = target: ABL1(H396P)-nonphosphorylated (Homo sapiens (Human), UniProt P00519, H396P)
Protocol: as §1

CDK5 = CDK5 (Homo sapiens (Human), UniProt Q00535)
Protocol: as §1

WNK3 = WNK3 (Homo sapiens (Human), UniProt Q9BYP7)
Protocol: as §1

TNK2 = TNK2 (Homo sapiens (Human), UniProt Q07912)
Protocol: as §1

PRKG1 = PRKG1 (Homo sapiens (Human), UniProt Q13976)
Protocol: as §1

GSK3A = GSK3A (Homo sapiens (Human), UniProt P49840)
Protocol: as §1

IRAK3 = IRAK3 (Homo sapiens (Human), UniProt Q9Y616)
Protocol: as §1

PDGFRA = PDGFRA (Homo sapiens (Human), UniProt P16234)
Protocol: as §1

ABL1-phosphorylated = ABL1-phosphorylated (Homo sapiens (Human), UniProt P00519)
Protocol: as §1

CDC2L1 = CDC2L1 (Homo sapiens (Human), UniProt P21127)
Protocol: as §1

FLT3 (R834Q) = FLT3 (R834Q) (Homo sapiens (Human), UniProt P36888, R834Q)
Protocol: as §1

RET (V804M) = RET (V804M) (Homo sapiens (Human), UniProt P07949, V804M)
Protocol: as §1

LCK = LCK (Homo sapiens (Human), UniProt P06239)
Protocol: as §1

IGF1R = IGF1R (Homo sapiens (Human), UniProt P08069)
Protocol: as §1

[2] = target: ABL1(F317I)-phosphorylated (Homo sapiens (Human), UniProt P00519, F317I)
Protocol: as §1

[3] = target: ABL1(H396P)-phosphorylated (Homo sapiens (Human), UniProt P00519, H396P)
Protocol: as §1

MTOR = MTOR (Homo sapiens (Human), UniProt P42345)
Protocol: as §1

LYN = LYN (Homo sapiens (Human), UniProt P07948)
Protocol: as §1

NEK7 = NEK7 (Homo sapiens (Human), UniProt Q8TDX7)
Protocol: as §1

ACVRL1 = ACVRL1 (Homo sapiens (Human), UniProt P37023)
Protocol: as §1

FGFR3 = FGFR3 (Homo sapiens (Human), UniProt P22607)
Protocol: as §1

PKNB (M.tuberculosis) = PKNB (M.tuberculosis) (Mycobacterium tuberculosis (strain ATCC 25618 / H37Rv), UniProt P9WI81)
Protocol: as §1

YANK1 = YANK1 (Homo sapiens (Human), UniProt Q8WU08)
Protocol: as §1

[4] = target: ABL1(Q252H)-nonphosphorylated (Homo sapiens (Human), UniProt P00519, Q252H)
Protocol: as §1

NEK5 = NEK5 (Homo sapiens (Human), UniProt Q6P3R8)
Protocol: as §1

PRKR = PRKR (Homo sapiens (Human), UniProt P19525)
Protocol: as §1

PAK1 = PAK1 (Homo sapiens (Human), UniProt Q13153)
Protocol: as §1

MERTK = MERTK (Homo sapiens (Human), UniProt Q12866)
Protocol: as §1

WNK4 = WNK4 (Homo sapiens (Human), UniProt Q96J92)
Protocol: as §1

EPHA1 = EPHA1 (Homo sapiens (Human), UniProt P21709)
Protocol: as §1

RIOK3 = RIOK3 (Homo sapiens (Human), UniProt O14730)
Protocol: as §1

ITK = ITK (Homo sapiens (Human), UniProt Q08881)
Protocol: as §1

PIK3CG = PIK3CG (Homo sapiens (Human), UniProt P48736)
Protocol: as §1

KIT(V559D,V654A) = KIT(V559D,V654A) (Homo sapiens (Human), UniProt P10721, V559D/V654A)
Protocol: as §1

Sequence of PAK1 (Q13153 whole entry): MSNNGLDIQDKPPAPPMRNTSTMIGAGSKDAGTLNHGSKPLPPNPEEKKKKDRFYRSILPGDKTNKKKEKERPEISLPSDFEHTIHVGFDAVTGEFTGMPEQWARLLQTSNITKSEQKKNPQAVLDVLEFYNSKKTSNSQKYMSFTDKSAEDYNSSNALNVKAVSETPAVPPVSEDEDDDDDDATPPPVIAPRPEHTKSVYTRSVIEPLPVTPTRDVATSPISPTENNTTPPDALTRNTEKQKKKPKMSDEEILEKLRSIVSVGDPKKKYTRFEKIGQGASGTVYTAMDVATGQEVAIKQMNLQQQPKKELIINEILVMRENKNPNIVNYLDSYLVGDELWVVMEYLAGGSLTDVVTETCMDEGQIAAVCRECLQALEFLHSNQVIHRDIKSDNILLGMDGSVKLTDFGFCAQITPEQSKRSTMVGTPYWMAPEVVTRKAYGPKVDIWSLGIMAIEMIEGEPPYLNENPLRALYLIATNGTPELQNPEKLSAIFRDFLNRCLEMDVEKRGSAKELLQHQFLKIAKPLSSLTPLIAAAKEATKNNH
Sequence of IGF1R (P08069 31-1367): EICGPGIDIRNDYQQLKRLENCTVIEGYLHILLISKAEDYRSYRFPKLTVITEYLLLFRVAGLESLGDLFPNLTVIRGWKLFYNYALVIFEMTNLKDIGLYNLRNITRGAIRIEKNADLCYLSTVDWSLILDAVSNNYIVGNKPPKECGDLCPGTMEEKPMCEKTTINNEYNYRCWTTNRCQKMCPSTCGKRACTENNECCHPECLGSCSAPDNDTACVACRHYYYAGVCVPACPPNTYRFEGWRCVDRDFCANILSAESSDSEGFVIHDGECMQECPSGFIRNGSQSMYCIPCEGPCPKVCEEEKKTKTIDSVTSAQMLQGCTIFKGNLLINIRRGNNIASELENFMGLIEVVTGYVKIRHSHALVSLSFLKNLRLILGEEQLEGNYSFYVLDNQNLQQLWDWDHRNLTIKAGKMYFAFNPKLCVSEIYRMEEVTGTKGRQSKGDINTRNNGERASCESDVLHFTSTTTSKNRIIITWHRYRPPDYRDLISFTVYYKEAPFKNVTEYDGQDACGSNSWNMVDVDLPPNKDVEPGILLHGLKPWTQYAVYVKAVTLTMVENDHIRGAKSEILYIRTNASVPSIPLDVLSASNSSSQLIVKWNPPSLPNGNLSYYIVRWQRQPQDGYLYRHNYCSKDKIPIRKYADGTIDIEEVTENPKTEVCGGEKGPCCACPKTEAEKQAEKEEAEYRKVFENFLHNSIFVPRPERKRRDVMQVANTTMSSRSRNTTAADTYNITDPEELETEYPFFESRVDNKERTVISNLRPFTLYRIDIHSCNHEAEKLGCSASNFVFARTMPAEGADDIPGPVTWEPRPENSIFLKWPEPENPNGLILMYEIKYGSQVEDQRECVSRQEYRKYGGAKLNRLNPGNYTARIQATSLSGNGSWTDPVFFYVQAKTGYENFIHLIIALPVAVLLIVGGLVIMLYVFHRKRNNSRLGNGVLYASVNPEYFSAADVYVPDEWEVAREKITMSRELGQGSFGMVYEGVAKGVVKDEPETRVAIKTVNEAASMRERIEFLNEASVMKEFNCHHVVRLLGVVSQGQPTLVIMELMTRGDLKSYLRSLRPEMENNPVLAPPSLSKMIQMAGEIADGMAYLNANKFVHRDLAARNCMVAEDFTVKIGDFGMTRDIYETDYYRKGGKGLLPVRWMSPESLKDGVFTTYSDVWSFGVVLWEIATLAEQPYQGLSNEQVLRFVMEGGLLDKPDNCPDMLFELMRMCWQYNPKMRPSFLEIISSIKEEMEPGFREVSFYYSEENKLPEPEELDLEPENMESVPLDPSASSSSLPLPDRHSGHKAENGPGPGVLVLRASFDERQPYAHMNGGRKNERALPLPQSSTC
Sequence of PRKG1 (Q13976 whole entry): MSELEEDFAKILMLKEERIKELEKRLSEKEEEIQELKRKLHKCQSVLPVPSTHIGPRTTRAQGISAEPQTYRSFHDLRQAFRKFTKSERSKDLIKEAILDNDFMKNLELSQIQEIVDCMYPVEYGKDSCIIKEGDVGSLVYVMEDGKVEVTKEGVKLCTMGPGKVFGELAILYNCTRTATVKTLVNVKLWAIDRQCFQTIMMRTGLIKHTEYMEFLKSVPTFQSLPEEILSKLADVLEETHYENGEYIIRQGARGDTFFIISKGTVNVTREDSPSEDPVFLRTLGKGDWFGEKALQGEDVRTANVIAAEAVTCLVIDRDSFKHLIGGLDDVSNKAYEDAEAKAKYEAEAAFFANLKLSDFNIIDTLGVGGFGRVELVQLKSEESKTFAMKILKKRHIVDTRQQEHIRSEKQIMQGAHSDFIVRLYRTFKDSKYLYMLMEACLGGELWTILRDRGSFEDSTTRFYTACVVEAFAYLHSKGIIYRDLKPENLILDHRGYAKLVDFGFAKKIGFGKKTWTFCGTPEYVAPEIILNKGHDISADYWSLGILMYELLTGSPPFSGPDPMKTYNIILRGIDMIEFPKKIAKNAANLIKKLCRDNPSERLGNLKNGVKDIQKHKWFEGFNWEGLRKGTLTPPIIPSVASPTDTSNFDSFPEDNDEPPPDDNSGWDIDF
Sequence of PIK3CG (P48736 whole entry): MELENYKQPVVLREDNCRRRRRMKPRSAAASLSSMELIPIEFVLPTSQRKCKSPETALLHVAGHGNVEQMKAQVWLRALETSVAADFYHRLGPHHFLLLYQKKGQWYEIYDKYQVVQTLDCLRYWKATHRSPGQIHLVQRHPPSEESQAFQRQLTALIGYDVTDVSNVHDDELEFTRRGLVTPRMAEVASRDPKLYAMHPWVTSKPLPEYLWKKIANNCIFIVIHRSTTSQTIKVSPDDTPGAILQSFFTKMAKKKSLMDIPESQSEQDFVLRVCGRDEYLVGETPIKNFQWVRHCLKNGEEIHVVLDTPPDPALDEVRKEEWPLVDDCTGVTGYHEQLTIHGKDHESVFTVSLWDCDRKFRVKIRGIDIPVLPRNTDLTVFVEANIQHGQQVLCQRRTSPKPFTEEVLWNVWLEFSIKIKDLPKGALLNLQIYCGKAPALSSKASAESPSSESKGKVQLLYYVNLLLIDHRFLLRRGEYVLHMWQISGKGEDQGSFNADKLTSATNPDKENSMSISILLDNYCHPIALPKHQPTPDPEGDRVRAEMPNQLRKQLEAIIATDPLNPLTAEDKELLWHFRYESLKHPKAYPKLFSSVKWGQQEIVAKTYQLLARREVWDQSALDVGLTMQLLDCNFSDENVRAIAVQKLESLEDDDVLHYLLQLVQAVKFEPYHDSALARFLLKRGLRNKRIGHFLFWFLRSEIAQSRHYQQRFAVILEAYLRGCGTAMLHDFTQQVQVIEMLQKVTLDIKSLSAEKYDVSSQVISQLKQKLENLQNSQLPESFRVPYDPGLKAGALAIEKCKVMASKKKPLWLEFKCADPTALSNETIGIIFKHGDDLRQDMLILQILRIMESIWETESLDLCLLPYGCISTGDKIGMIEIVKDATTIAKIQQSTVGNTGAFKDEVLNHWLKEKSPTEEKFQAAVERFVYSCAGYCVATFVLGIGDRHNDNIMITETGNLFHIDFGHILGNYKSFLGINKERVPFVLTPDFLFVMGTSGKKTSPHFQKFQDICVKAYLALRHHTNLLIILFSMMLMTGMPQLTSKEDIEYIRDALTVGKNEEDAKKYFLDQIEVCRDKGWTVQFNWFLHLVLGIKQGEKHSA
Sequence of NEK5 (Q6P3R8 whole entry): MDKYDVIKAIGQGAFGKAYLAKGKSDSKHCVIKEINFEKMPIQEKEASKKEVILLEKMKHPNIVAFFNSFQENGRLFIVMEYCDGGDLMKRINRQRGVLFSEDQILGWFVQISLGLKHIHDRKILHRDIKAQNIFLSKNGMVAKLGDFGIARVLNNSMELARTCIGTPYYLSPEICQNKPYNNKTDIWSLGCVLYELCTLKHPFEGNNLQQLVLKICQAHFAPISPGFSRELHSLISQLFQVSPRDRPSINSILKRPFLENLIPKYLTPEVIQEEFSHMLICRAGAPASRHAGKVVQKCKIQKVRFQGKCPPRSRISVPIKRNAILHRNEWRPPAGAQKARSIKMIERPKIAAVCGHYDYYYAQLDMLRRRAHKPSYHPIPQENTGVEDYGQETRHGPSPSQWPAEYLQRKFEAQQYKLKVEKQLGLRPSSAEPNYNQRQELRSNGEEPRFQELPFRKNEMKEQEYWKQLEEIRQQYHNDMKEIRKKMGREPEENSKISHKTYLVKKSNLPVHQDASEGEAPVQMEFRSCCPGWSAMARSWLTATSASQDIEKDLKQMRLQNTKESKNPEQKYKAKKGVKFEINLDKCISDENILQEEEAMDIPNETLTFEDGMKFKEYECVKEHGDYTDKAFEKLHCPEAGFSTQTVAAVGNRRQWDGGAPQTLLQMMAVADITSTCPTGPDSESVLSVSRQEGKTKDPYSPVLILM
Sequence of ACVRL1 (P37023 22-503): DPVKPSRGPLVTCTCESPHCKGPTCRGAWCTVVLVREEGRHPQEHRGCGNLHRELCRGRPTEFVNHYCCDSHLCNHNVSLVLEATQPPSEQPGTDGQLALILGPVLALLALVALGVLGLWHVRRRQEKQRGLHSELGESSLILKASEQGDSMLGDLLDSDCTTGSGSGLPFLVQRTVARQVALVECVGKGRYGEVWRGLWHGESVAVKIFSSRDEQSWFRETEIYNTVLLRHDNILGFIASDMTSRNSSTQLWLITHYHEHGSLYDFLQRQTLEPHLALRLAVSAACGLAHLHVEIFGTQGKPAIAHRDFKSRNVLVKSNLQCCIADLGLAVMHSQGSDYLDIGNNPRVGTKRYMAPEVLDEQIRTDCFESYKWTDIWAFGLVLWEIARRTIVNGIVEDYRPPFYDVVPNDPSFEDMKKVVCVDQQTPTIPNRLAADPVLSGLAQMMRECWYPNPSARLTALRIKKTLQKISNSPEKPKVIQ

SMILES | remaining binding at 1 µM (DMPK2) [%] | remaining binding at 1 µM (GRK3) [%] | remaining binding at 1 µM (PRKCQ) [%] | remaining binding at 1 µM (TAOK3) [%] | remaining binding at 1 µM [1] [%] | remaining binding at 1 µM (CDK5) [%] | remaining binding at 1 µM (WNK3) [%] | remaining binding at 1 µM (TNK2) [%] | remaining binding at 1 µM (PRKG1) [%] | remaining binding at 1 µM (GSK3A) [%] | remaining binding at 1 µM (IRAK3) [%] | remaining binding at 1 µM (PDGFRA) [%] | remaining binding at 1 µM (ABL1-phosphorylated) [%] | remaining binding at 1 µM (CDC2L1) [%] | remaining binding at 1 µM (FLT3 (R834Q)) [%] | remaining binding at 1 µM (RET (V804M)) [%] | remaining binding at 1 µM (LCK) [%] | remaining binding at 1 µM (IGF1R) [%] | remaining binding at 1 µM [2] [%] | remaining binding at 1 µM [3] [%] | other results
CCN1CCN(Cc2cc(NC(=O)c3ccc(C)c(-c4ccc5nc(NC(=O)C6CC6)cn5n4)c3)cc(C(F)(F)F)c2)CC1 [Compound I-2, 3-(2-(cyclopropanecarboxamido)imidazo[1,2-b]pyridazin-6-yl)-N-(3-((4-ethylpiperazin-1-yl)methyl)-5-(trifluoromethyl)phenyl)-4-methylbenzamide] | 87 | 87 | 27 | 0.2 | 0 | 6.6 | 92 | 100 | 100 | 43 | 90 | 1.1 | 0.1 | 44 | 1.5 | 0.05 | 0 | 0.7 | 5.1 | 0.3 | remaining binding at 1 µM (MTOR): 78%; remaining binding at 1 µM (LYN): 0.55%; remaining binding at 1 µM (NEK7): 99%; remaining binding at 1 µM (ACVRL1): 91%; remaining binding at 1 µM (FGFR3): 86%; remaining binding at 1 µM (PKNB (M.tuberculosis)): 78%; remaining binding at 1 µM (YANK1): 93%; remaining binding at 1 µM [4]: 0%; remaining binding at 1 µM (NEK5): 89%; remaining binding at 1 µM (PRKR): 97%; remaining binding at 1 µM (PAK1): 81%; remaining binding at 1 µM (MERTK): 0.25%; remaining binding at 1 µM (WNK4): 75%; remaining binding at 1 µM (EPHA1): 44%; remaining binding at 1 µM (RIOK3): 100%; remaining binding at 1 µM (ITK): 1.4%; remaining binding at 1 µM (PIK3CG): 99%; remaining binding at 1 µM (KIT(V559D,V654A)): 6.1%
CCN1CCN(Cc2cc(NC(=O)c3ccc(C)c(-c4ccc5nc(NC(=O)C6CC6)cn5c4)c3)cc(C(F)(F)F)c2)CC1 [Compound I-6, 3-(2-(cyclopropanecarboxamido)imidazo[1,2-a]pyridin-6-yl)-N-(3-((4-ethylpiperazin-1-yl)methyl)-5-(trifluoromethyl)phenyl)-4-methylbenzamide] | 100 | 90 | 74 | 0.9 | 0 | 52 | 83 | 99 | 87 | 68 | 93 | 1.2 | 0.1 | 33 | 2.1 | 0 | 0.1 | 11 | 9.4 | 0.25 | remaining binding at 1 µM (MTOR): 91%; remaining binding at 1 µM (LYN): 0.6%; remaining binding at 1 µM (NEK7): 91%; remaining binding at 1 µM (ACVRL1): 92%; remaining binding at 1 µM (FGFR3): 89%; remaining binding at 1 µM (PKNB (M.tuberculosis)): 91%; remaining binding at 1 µM (YANK1): 93%; remaining binding at 1 µM [4]: 0.15%; remaining binding at 1 µM (NEK5): 100%; remaining binding at 1 µM (PRKR): 95%; remaining binding at 1 µM (PAK1): 78%; remaining binding at 1 µM (MERTK): 0.25%; remaining binding at 1 µM (WNK4): 100%; remaining binding at 1 µM (EPHA1): 38%; remaining binding at 1 µM (RIOK3): 90%; remaining binding at 1 µM (ITK): 5.8%; remaining binding at 1 µM (PIK3CG): 92%; remaining binding at 1 µM (KIT(V559D,V654A)): 7.4%
